Test [1] addresses T1, S100B (UniProt P04631).
T1 sequence (P04631 1-92): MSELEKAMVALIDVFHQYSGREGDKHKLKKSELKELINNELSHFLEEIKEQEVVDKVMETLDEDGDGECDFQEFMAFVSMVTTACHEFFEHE
In words: Fluorescence binding / competition titrations of small molecules to S100B. As for the experimental part: (§1) Inhibition of binding of S100 proteins to p53 can be assayed by fluorescence binding/competition assays. For example, binding to S100B is monitored using fluorescent peptides such as the F43W p53 peptide ([…] (SEQ ID NO:1)) or the TRTK-12 peptide ([…] (SEQ ID NO:2)) that both contain fluorescent tryptophan residues (see Example 7). In such an assay, the binding of the peptide is monitored by changes in its fluorescence intensity at 350-370 nm in the presence of 10-20 mM calcium chloride (pH 7.4). Displacement of the peptide by the test compound is then monitored by a corresponding decrease in fluorescence intensity and the dissociation constant of the test compound from S100B is calculated using a standard competition equation (KD=Kapp/(1+[floursecent peptide]/KD peptide). The amino acid residues on S100B to which the test compound binds can then monitored by chemical shift perturbations using NMR spectroscopy.
The binding of the small molecules to S100B identified in the CADD search were measured using fluorescence spectroscopy. The compounds identified are as follows:
Compounds that fluorescent (i.e., for Compounds 9, 31 and 33) were measured by a direct binding assay to S100B via fluorescence intensity changes. […] First, changes in tyrosine fluorescence (for Tyr-17 of S100B) were sufficient in some cases to evaluate binding (Rustandi et al (1998), supra; and Szabo et al, FEBS Lett., 94:249-252 (1978)). However, to circumvent problems associated with the low quantum yield of the tyrosine residue, the F43W mutant of S100B was used (FIG. 12A), and then competition studies were done with wild-type S100B (FIG. 12B). In this S100B construct (in F43W S100B), the tryptophan residue is located in the target protein binding site, so the emission of the tryptophan mutant was measured in a straightforward manner at 338 nm as a function of adding compound. This F43W mutant has similar structure, Ca^2+-binding and target binding properties of wild-type S100B. Another approach was to bind a fluorescent probe to wild-type S100B and do competition binding assays with the compound. […] Steady state experiments to determine binding constants were performed on Aminco Bowman Series 2 Luminescence Spectrophotofluorometer with the temperature of the cell (quartz cuvettes) maintained at 25° C. Two internal controls were performed in all titrations. EGTA was added to S100B to chelate the calcium and determine whether the interaction with the drug requires the Ca^2+-dependent conformational change observed for a number of protein targets (Weber et al, supra). In addition, the titrations were performed in the absence of calcium as a control. All compounds with fluorescence emission spectra were also routinely evaluated for photobleaching before proceeding. Buffers were also checked routinely for any contaminants that may fluoresce.

Test [2] deals with MCF-7. In words: Bleomycin treatment of MCF-7 cells, Western blots of p53, mdm2, p21. It is filed as cell-based, human. To be noted: MCF-7, wild type p53; FIG. 6B lane 2. An excerpt:
Next, it was explored whether S100B could interact with endogenous p53 and affect the expression of mdm2 and p21. The human breast cancer cell line MCF-7, which has a wild type p53 genotype (Kastan et al, Cell, 71:587-597 (1992)), was transiently transfected with S100B. After S100B transfection, the cells were either treated (or not) with the x-ray mimic agent bleomycin to induce endogenous p53 production.
For orientation: A western blot detects proteins with antibodies after separation by electrophoresis.

Test [3] addresses T2, holo-S100B (Homo sapiens, UniProt P04271).
T2 construct: made in house
T2 sequence (P04271 1-92): T1 sequence (P04631 1-92) with E63N, S79A
In words: NMR mapping of binding interface (HSQC chemical shift perturbation, STD). To be noted: 37° C. As for the experimental part:
NMR spectroscopy experiments were carried out to determine what amino acid residues of S100B and the small molecule are interacting (FIG. 14). Resonances of S100B that interact with the small molecules were identified by titrating compounds into holo-S100B and monitoring perturbations in chemical shifts of backbone amide-proton correlations in a ^15N-edited HSQC spectrum (Mori et al, J. Magnetic Resonance, B108:94-98 (1995)). […] An example of mapping the Compound-S100B interface is provided in FIGS. 14A-14C for the interaction between holo-S100B and Compound 4. […] These residues are highlighted red in FIG. 14C for titrations with Compound 4. Resonance assignments of S100B bound to the small molecules were confirmed using a 3D NOESY-HSQC experiment, and the backbone and sidechain chemical shifts of Ca^+2-loaded S100B and S100B bound to p53 peptide as described by Drohat et al (1998), supra; Rustadni et al (2000), supra; and Rustadni et al (1998), supra, were also helpful in the assignment procedure. Regions of the inhibitors that interact with S100B were identified using epitope mapping via saturation transfer difference experiments (STDs) as described by Mayer et al, J. Am. Chem. Soc., 123:6108-6117 (2001). In FIG. 14A, protons of the compound that are proximal to S100B are indicated by arrows. […]

Test [4] has as its system C8146A melanoma cells. The test is described as follows: siRNA transfection of C8146A melanoma cells, Western blots of S100B, p53, p21. It is filed as cell-based, human. To be noted: siRNA 2.0, 20 nM; harvested 24 hrs after transfection. As for the experimental part:
The small interfering RNA (siRNA) used consisted of […] (nt) double-stranded RNA, which was synthesized by Xeragon Inc. (Huntsville, Ala.). The sequence of the siRNA, i.e., 5′-ACUACUGCCUGCCACGAGUUC-3 (SEQ ID NO:6), corresponds to the S100β C-terminal end (nt 244-265) plus two dT 3′ overhang.
Different concentrations of siRNA (2.0, 20 nM) were added to the cells along with 2.0 μg of pCMV.3 empty vector (Stratagene, La Jolla, Calif.). The siRNA was transfected in C8146A melanoma cells using FuGENE reagent (Roche Molecular Biochemicals, Indianapolis, Ind.) according to the manufacturer's recommendation. The cells were harvested 24 hrs later and analyzed by Western blots as described above.

In test [5] the target is T1, S100B. In words: Fluorescence binding / competition titrations of small molecules to S100B. Set-up: rows headed: KD of fluorescent probe peptide for S100B. The note with it: read-out: KD of fluorescent probe peptide for S100B; probes used in competition studies with wild-type S100B. As for the experimental part: as §1
The binding of the small molecules to S100B identified in the CADD search were measured using fluorescence spectroscopy. […]
Compounds that fluorescent (i.e., for Compounds 9, 31 and 33) were measured by a direct binding assay to S100B via fluorescence intensity changes. […] First, changes in tyrosine fluorescence (for Tyr-17 of S100B) were sufficient in some cases to evaluate binding (Rustandi et al (1998), supra; and Szabo et al, FEBS Lett., 94:249-252 (1978)). […]

In test [6] the test system is primary malignant melanoma cells (C8146A and HTB 64). The test is described as follows: Growth of primary malignant melanoma cells (cell counting after 13 days). It is filed as cell-based. To be noted: Homo sapiens. As for the experimental part: (§2) The effect that compounds have on the growth of primary malignant melanoma cells (cell lines: C8146A and HTB 64) and normal melanocytes (Cell Applications Inc. 104-05 from neonatal foreskin) were measured. […] The growth inhibition constants (IC50 values) results from other compounds are listed above. In these studies, typically ˜10,000 cells were distributed evenly across T25 vials. One day later, new media with or without the small molecule (2.5 μM or 25 μM) was added, and the cells were allowed to grow for an additional 13 days. Because some molecules were delivered in DMSO, the effect of DMSO (0.1-0.2% (v/v)) on cell growth was also checked and found to have no effect at these levels (FIG. 13). At this point, the cells were washed in phosphate buffer saline (PBS), harvested by treatment with trypsin, and placed in F10 media with 5.0% (v/v) fetal bovine serum (FBS), 5.0% (v/v) newborn calf serum (NCS), and 2.0% (w/v) penicillin/streptomycin. The cells were counted with a hemocytometer in quadruplicate trials.

For test [7], the system named is normal melanocytes (neonatal foreskin). In words: Growth of normal melanocytes (cell counting). It is filed as cell-based. To be noted: compared with melanoma cells. As for the experimental part:
as §2

[8] abbreviates: direct fluorescence, F43W S100B or peptide-probe competition, 25° C., calcium present, read-out: Kd (binding to S100B, fluorescence spectroscopy).
Where [9] appears, read: 312 h, primary malignant melanoma cells, screened at 2.5 μM or 25 μM, 13 days, read-out: IC50 (growth inhibition constant).

Where a chain is given by its changes, count along the chain named. pIC50, pKd: −log10 of the molar value. Where two headings read alike, the source gives them in different places. Where no end group is shown, it is not given here.

`COc1cccc(N2C(=O)c3ccc(C(=O)Nc4cc(C(=O)O)cc(C(=O)O)c4)cc3C2=O)c1` [Compound 45, 5-{[2-(3-Methoxy-phenyl)-1,3-dioxo-2,3-dihydro-1H-isoindole-5-carbonyl]-amino}-isophthalic acid]: in test [1] (setting [8]), the pKd – broadly, −log10 of the Kd, conventionally taken in molar units – is approximately 4.92.

In the case of bleomycin, in test [2], the “basal levels of p53, mdm2 and p21, in words” value was “induced”.

On to `N=C(N)NC(=N)Nc1ccc(Cl)cc1C(=O)c1ccccc1` [Compound 9, {[(2-benzoyl-4-chloroanilino)(imino)methyl]amino}methanimidamide], for which the pKd in test [1] (setting [8]) is 5.40.

Consider `Cc1c(NS(=O)(=O)c2ccc(NC(=O)CCC(=O)O)cc2)c(=O)n(-c2ccccc2)n1C` [Compound 4, 4-(4-{[(1,5-dimethyl-3-oxo-2-phenyl-2,3,dihydro-1H-pyrazol-4-yl)amino]sulfonyl}anilino)-4-oxo butanoic acid], for which, in test [3], the “binding site on S100B by NMR” value was “interacts with the C-terminus of S100B (loop 4) and another region of S100B (loop 2)”. In test [1] (setting [8]), the negative-log Kd (pKd) is 5.70.

As for “5′-ACUACUGCCUGCCACGAGUUC-3 [siS100B]”, in test [4], the “increase in p53 levels” value came to 2.3 fold, the “lowering of S100B levels” value came to 3 fold and the “up-regulation of p21 protein levels” value was 2.6 fold.

For “SHLKSKKGQSTSRHKKLMWKTE [p53 (F385W), reference compound]”, the pKd in test [5] is 5.52.

On to `CC(C)(C)NC(=O)c1cccc(N2C(=O)c3ccc(C(=O)O)cc3C2=O)c1` [Compound 44, 2-(3-tert-Butylcarbamoyl-phenyl)-1,3-dioxo-2,3-dihydro-1H-isoindole-5-carboxylic acid], for which the negative-log Kd (pKd) in test [1] (setting [8]) is approximately 4.62.

Regarding `COc1cc(C2Nc3ccccc3-c3nc(SC)nnc3O2)ccc1OCC(=O)O` (stereo not drawn) [Compound 33, 1,2-(3-methylthiotraizine),3,4-phenyl,6-[(2-methoxyphenoxy)Acetic Acid]morpholine], the negative-log IC50 (pIC50) (commonly the negative decadic logarithm of the IC50, by convention in mol/L) in test [6] (setting [9]) is approximately 4.60.

With `O=C(COc1ccc(C(F)(F)F)c[n+]1[O-])c1cccc([N+](=O)[O-])c1` [Compound 1, 2-[2-(3-nitrophenyl)-2-oxoethoxy]-5-(tri-fluoromethyl)pyridinium-1-olate], in test [6] (setting [9]), the negative-log IC50 (pIC50) was 5.60. In addition, the negative-log Kd (pKd) in test [1] (setting [8]) is 5.57.

`N=C(N)c1ccc(OCCCCCOc2ccc(C(=N)N)cc2)cc1` [pentamidine, reference compound]: in test [3], the “binding site on S100B by NMR” value is on record as “in the p53 binding site”. Moreover, the “effect on normal melanocytes, in words” value in test [7] was “lesser effects on normal melanocytes”. Further, the pIC50 in test [6] (primary malignant melanoma cells (C8146A), read-out: IC50 for inhibition of cell growth) is approximately 6.30. For the same compound, the negative-log Kd (pKd) is 5.85 in test [1] (setting [8]); 6.15 in test [1] (read-out: binding constant (KD) between wild-type holo-S100B and pentamidine, competition of pentamidine bound to F43W S100B with wild-type S100B).

In the case of `O=C(O)c1cc(N/N=C/c2ccc(-c3ccc(Cl)c(C(=O)O)c3)o2)ccc1Cl` [Compound 31], the negative logarithm of the IC50 (pIC50) in test [6] (setting [9]) was approximately 4.60. Further, the pKd in test [1] (setting [8]) is approximately 5.22.

Regarding `N=C(N)NC(=N)Nc1cccc(Cl)c1Cl` [Compound 3, {[(2,3,dichloroanilino)(imino)methyl]amino}methanimidamide], the pIC50 in test [6] (primary malignant melanoma cells, read-out: IC50 (growth inhibition constant), unit inferred) is more than 5.60.

The record behind these values is patent US8053477B2, “Inhibitors of the S100-p53 protein-protein interaction and method of inhibiting cancer employing the same” (University of Maryland, Baltimore, priority 2002, dated 2011).
